{"source": "patent US10058563B2", "about": "“System and method for diagnosis and treatment” (Pop Test Oncology Limited Liability Company, priority 2011, dated 2018)", "key": {"[1]": {"test_system": "TNBC (Triple Negative Breast Cancer; MDA-MB-231) cells", "assay": "Xenografted breast tumor growth, ORG 34517 plus Taxol (Example 1)", "assay_type": "in vivo, CB-17 SCID mice", "conditions": "for relative tumor growth: N=3, control Veh/Veh 379%", "procedure": "This study is performed to obtain evidence for enhancement of chemotherapy sensitivity of GR+/ER−/PR−/Her2-neu− breast cancer cells by blocking stress-mediated cell survival pathways with a GR antagonist. In the present pilot study, the GR antagonist ORG 34517, is investigated, in one dose, in combination with the chemotherapeutic agent Taxol. Both the Taxol and ORG 34517 doses are selected based on previous experiments.\nMaterials and Methods—1×107 TNBC (Triple Negative Breast Cancer; MDA-MB-231) cells in 50 ul of PBS (phosphate buffered saline) are injected into the mammary fat pad of 4-5 week old CB-17 SCID mice (Taconic Labs). The mice are allowed to form xenografted breast tumors of approximately 200 mm3 volume. When tumors reach an average of 200 mm3 (Week “0”), 15 mice are separated into the 3 treatment groups 1) vehicle, 2) paclitaxel (Taxol), 3) ORG 34517+ paclitaxel. The used paclitaxel dose is 10 mg/kg/day dissolved in Ethanol/Sesame Oil; ORG 34517 is administered in the maximum soluble dose of 20.5 mg/kg/day dissolved in Ethanol/Castor Oil. The mice receive intraperitoneal injections (200 ul) of drugs for 5 consecutive days (day 1-5). Tumors are measured three times per week. Tumor size is both expressed as absolute volume and as relative growth in comparison to baseline (day 0).\nResults—Treatment of the animals is started when the tumor has a volume of at least 100 mm3. The total experimental group consisted of 15 animals. In 6 animals the tumor growth was considered not sufficient. […] In the control situation the tumor grows within 13 days with about 800 mm3 (see raw data). To correct for baseline differences, for each animal the relative tumor growth is calculated. Relative growth is defined as (tumor size day x−tumor size day 0)/tumor size day 0. Group averages for the relative tumor growth are depicted in FIG. 1. In the control condition (VehlVeh) the relative growth is 379%. […] A further reduction of the growth is induced by the addition of ORG 34517 (517/Taxo). The relative growth of this latter group is 100%.\nA repeated measures ANOVA did reveal a significant time-effect (F5,36)=2.73; p=0.035), a significant treatment effect (F(2,36)=26.86; p=0.000) and a significant interaction (F(10,36)=2.36; p=0.029). […] This statistical analysis should be considered explorative because of the pilot nature of the study."}, "[2]": {"test_system": "ER-GR+ human breast cancer cells", "assay": "Tumor volume in mice implanted with ER-GR+ breast cancer cells (Example 2)", "assay_type": "in vivo", "conditions": "i.p. vehicle alone vs Paclitaxel alone vs Paclitaxel and ORG 34517; 3 mice per group", "description": "As tumor volume in each mouse approached the test threshold of 200 mm3, the mice were randomized to receive intraperitoneal injections of vehicle alone, chemotherapy (Paclitaxel) alone, and chemotherapy and ORG 34517. Each group contained 3 mice.\nMice were implanted with cultured ER-GR+ human breast cancer cells. As tumor volume in each mouse approached the test threshold of 200 mm3, the mice were randomized to receive intraperitoneal injections of vehicle alone, chemotherapy (Paclitaxel) alone, and chemotherapy and ORG 34517. Each group contained 3 mice."}, "[3]": {"assay": "Solubility in different solvents", "assay_type": "physicochemical", "procedure": "The solubility of (11β,17β)-11-(1,3-benzodioxol-5-yl)-17-hydroxy-17-(1-propynyl)estra-4,9-dien-3-one is determined in different solvents. These solutions can be of use for clinical treatment with the advantages as mentioned above."}, "[4]": {"assay": "Behaviour in conventional dosage forms (capsule or tablet)", "assay_type": "in vivo", "conditions": "like a capsule or a tablet", "description": "Another dosage form than a conventional tablet or capsule may be able to circumvent these issues."}, "glucocorticoid receptor": {"molecular_target": "T1, glucocorticoid receptor (Homo sapiens, UniProt P04150)", "T1 sequence (P04150 1-777)": "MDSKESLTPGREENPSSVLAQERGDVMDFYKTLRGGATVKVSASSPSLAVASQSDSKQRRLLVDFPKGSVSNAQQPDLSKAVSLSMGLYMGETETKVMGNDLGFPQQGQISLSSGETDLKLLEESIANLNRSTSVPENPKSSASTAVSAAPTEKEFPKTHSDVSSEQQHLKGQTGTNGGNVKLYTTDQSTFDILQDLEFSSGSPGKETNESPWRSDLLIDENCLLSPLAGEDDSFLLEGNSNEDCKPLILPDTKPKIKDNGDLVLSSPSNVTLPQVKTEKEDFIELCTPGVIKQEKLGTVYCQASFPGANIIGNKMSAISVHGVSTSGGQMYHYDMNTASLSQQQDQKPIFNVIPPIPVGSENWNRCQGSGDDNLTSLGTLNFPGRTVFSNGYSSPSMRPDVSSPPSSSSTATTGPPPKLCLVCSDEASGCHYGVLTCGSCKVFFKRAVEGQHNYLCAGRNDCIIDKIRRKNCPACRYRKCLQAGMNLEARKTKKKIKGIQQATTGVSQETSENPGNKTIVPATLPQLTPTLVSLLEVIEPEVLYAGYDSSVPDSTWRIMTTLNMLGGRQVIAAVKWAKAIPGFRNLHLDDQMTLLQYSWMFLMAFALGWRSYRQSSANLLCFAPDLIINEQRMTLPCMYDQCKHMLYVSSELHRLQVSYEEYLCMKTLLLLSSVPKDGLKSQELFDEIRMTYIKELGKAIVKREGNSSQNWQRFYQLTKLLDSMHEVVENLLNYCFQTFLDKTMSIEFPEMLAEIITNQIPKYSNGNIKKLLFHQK", "conditions": "disclosed in U.S. Pat. No. 6,011,025; cited from earlier work"}, "[5]": {"conditions": "disclosed in U.S. Pat. No. 6,011,025; cited from earlier work"}, "[6]": {"test_system": "mineralocorticoid, progesterone, estrogen and androgen receptors", "conditions": "such as those for estrogen and progesterone; cited from earlier work"}, "[7]": {"conditions": "all phase I and phase II clinical trials performed with the compound; cited from earlier work"}}, "note": "Read-outs that look alike come from different tables or passages of the source."}
{"smiles": "CC(=O)O[C@H]1C(=O)[C@@]2(C)[C@H]([C@H](OC(=O)c3ccccc3)[C@]3(O)C[C@H](OC(=O)[C@H](O)[C@@H](NC(=O)c4ccccc4)c4ccccc4)C(C)=C1C3(C)C)[C@]1(OC(C)=O)CO[C@@H]1C[C@@H]2O", "note": "[Taxol, paclitaxel, reference compound]", "values": [{"measurement": "relative tumor growth", "setting": "[1]; Taxol 10 mg/kg/day i.p. day 1-5 (Veh/Taxo)", "value": 183, "unit": "%"}, {"measurement": "effect on tumor growth", "setting": "[1]; Taxol injections alone", "value": "reduced the tumor growth"}]}
{"smiles": "CC#C[C@]1(O)CC[C@H]2[C@@H]3CCC4=CC(=O)CCC4=C3[C@@H](c3ccc4c(c3)OCO4)C[C@@]21C", "note": "[ORG 34517, (11β,17β)-11-(1,3-benzodioxol-5-yl)-17-hydroxy-17-(1-propynyl) estra-4,9-dien-3-one]", "values": [{"measurement": "tumor growth in comparison to Veh/Taxo treatment", "setting": "[1]; 517/Taxo, all three animals, individual scores", "value": "decreased tumor growth"}, {"measurement": "relative tumor growth", "setting": "[1]; ORG 34517 20.5 mg/kg/day + Taxol 10 mg/kg/day i.p. day 1-5 (517/Taxo)", "value": 100, "unit": "%"}, {"measurement": "animals with tumor shrinkage during treatment", "setting": "[1]; ORG 34517 20.5 mg/kg/day + Taxol 10 mg/kg/day i.p. for 5 days", "value": "2 out of 3"}, {"measurement": "effect on the chemotherapeutic effect of Taxol", "setting": "[1]; ORG 34517 i.p. 20.5 mg/kg/day for 5 days", "value": "potentiated the chemotherapeutic effect of Taxol"}, {"measurement": "attained tumor volume", "setting": "[2]", "value": "significant differences in attained tumor volume"}, {"measurement": "solubility", "setting": "[3]; Arachis oil", "value": 2.46, "unit": "mg/g"}, {"measurement": "solubility", "setting": "[3]; Benzylalcohol", "value": 390, "unit": "mg/g"}, {"measurement": "solubility", "setting": "[3]; Castor oil", "value": 7.38, "unit": "mg/g"}, {"measurement": "solubility", "setting": "[3]; Castor oil:benzylbenzoate (90:10)", "value": 15.0, "unit": "mg/g"}, {"measurement": "solubility", "setting": "[3]; Castor oil:propylene glycol laurate (0.55:0.45; v:v)", "value": 9.4, "unit": "mg/g"}, {"measurement": "solubility", "setting": "[3]; Corn oil", "value": 2.58, "unit": "mg/g"}, {"measurement": "solubility", "setting": "[3]; Cremophor EL", "value": 23, "unit": "mg/g"}, {"measurement": "solubility", "setting": "[3]; Gelicure 44/14, oil or lipid, read-out: Solubility", "value": 100000, "unit": "µg/mL"}, {"measurement": "solubility", "setting": "[3]; Glucofurol:water (50:50), aqueous with cosolvent or surfactant or cyclodextrin, read-out: Solubility", "value": 700, "unit": "µg/mL"}, {"measurement": "solubility", "setting": "[3]; Glycoferol, organic solvent or mixture, read-out: Solubility", "value": 118000, "unit": "µg/mL"}, {"measurement": "solubility", "setting": "[3]; HPβCD, 10% in water, aqueous with cosolvent or surfactant or cyclodextrin, read-out: Solubility", "value": 207, "unit": "µg/mL"}, {"measurement": "solubility", "setting": "[3]; HPβCD, 20% in water, aqueous with cosolvent or surfactant or cyclodextrin, read-out: Solubility", "value": 395, "unit": "µg/mL"}, {"measurement": "solubility", "setting": "[3]; HPβCD, 40% in water, aqueous with cosolvent or surfactant or cyclodextrin, read-out: Solubility", "value": 800, "unit": "µg/mL"}, {"measurement": "solubility", "setting": "[3]; Medium Chain monoglyceride/glycerol monocaprylate", "value": 28, "unit": "mg/g"}, {"measurement": "solubility", "setting": "[3]; Miglyol 812", "value": 4.5, "unit": "mg/g"}, {"measurement": "solubility", "setting": "[3]; Mulgofen:water (5:95), aqueous with cosolvent or surfactant or cyclodextrin, read-out: Solubility", "value": 2000, "unit": "µg/mL"}, {"measurement": "solubility", "setting": "[3]; Olive oil", "value": 2.26, "unit": "mg/g"}, {"measurement": "solubility", "setting": "[3]; PEG 400, organic solvent or mixture, read-out: Solubility", "value": 34400, "unit": "µg/mL"}, {"measurement": "solubility", "setting": "[3]; PEG 400:water (60:40), aqueous with cosolvent or surfactant or cyclodextrin, read-out: Solubility", "value": 0.6, "unit": "µg/mL"}, {"measurement": "solubility", "setting": "[3]; PEG 1500, organic solvent or mixture, read-out: Solubility", "value": 37000, "unit": "µg/mL"}, {"measurement": "solubility", "setting": "[3]; Polysorbate in water (0.5%)", "value": "<LOD"}, {"measurement": "solubility", "setting": "[3]; Soy oil", "value": 2.70, "unit": "mg/g"}, {"measurement": "solubility", "setting": "[3]; Span 80", "value": 7, "unit": "mg/g"}, {"measurement": "solubility", "setting": "[3]; TPGS:PEG 400:propyleneglycol (12:17:55), organic solvent or mixture, read-out: Solubility", "value": 700, "unit": "µg/mL"}, {"measurement": "solubility", "setting": "[3]; TPGS:PEG 400:propyleneglycol (20:60:5), organic solvent or mixture, read-out: Solubility", "value": 900, "unit": "µg/mL"}, {"measurement": "solubility", "setting": "[3]; acetone, organic solvent or mixture, read-out: Solubility", "value": "> 10000", "unit": "µg/mL"}, {"measurement": "solubility", "setting": "[3]; acetonitrile, organic solvent or mixture, read-out: Solubility", "value": "> 10000", "unit": "µg/mL"}, {"measurement": "solubility", "setting": "[3]; aqueous with cosolvent or surfactant or cyclodextrin, TPGS:d-Alpha Tocopheryl Polyethylene Glycol 1000 Succinate (20%, as delivered), read-out: Solubility", "value": 1100, "unit": "µg/mL"}, {"measurement": "solubility", "setting": "[3]; dimethylsulfoxide, organic solvent or mixture, read-out: Solubility", "value": "> 100000", "unit": "µg/mL"}, {"measurement": "solubility", "setting": "[3]; dog bile:phosphate buffer (1:1), plasma or biological fluid, Dog bile:phosphate buffer (pH = 6.5) (1:1), read-out: Solubility", "value": "~80", "unit": "µg/mL"}, {"measurement": "solubility", "setting": "[3]; ethanol, organic solvent or mixture, read-out: Solubility", "value": "> 10000", "unit": "µg/mL"}, {"measurement": "solubility", "setting": "[3]; ethanol:PEG 400:propylene glycol (10:50:40), organic solvent or mixture, read-out: Solubility", "value": 28600, "unit": "µg/mL"}, {"measurement": "solubility", "setting": "[3]; ethanol:PEG 400:propylene glycol:water (10:40:40:10), aqueous with cosolvent or surfactant or cyclodextrin, read-out: Solubility", "value": 14000, "unit": "µg/mL"}, {"measurement": "solubility", "setting": "[3]; methanol, organic solvent or mixture, read-out: Solubility", "value": "> 10000", "unit": "µg/mL"}, {"measurement": "solubility", "setting": "[3]; propylene glycol, organic solvent or mixture, read-out: Solubility", "value": 8900, "unit": "µg/mL"}, {"measurement": "solubility", "setting": "[3]; water with sodium lauryl sulphate 0.5% w/v, aqueous with cosolvent or surfactant or cyclodextrin, Water-Sodium lauryl sulphate (0.5% w/v), read-out: Solubility", "value": 240, "unit": "µg/mL"}, {"measurement": "solubility", "setting": "[3]; water with sodium lauryl sulphate 1.0% w/v, aqueous with cosolvent or surfactant or cyclodextrin, Water-Sodium lauryl sulphate (1.0% w/v), read-out: Solubility", "value": 377, "unit": "µg/mL"}, {"measurement": "solubility", "setting": "[3]; water, read-out: Solubility", "value": 3, "unit": "µg/mL"}, {"measurement": "exposure behaviour", "setting": "[4]", "value": "low exposure, high dose variability, large food effect and non-dose linearity"}, {"measurement": "glucocorticoid receptor binding affinity", "setting": "glucocorticoid receptor", "value": "high"}, {"measurement": "androgenic and progestagenic activities", "setting": "[5]", "value": "low"}, {"measurement": "cross-binding to other related steroidal hormone receptors", "setting": "[6]", "value": "without significant cross-binding"}, {"measurement": "significant toxicities and side effects", "setting": "[7]", "value": "none were identified"}]}
